The structures appear in SMILES notation.

Assay [1] concerns NSCLC cell lines (LLC, H1650 and A549). Description: Cell Titer-Glo cell viability assay. The assay is classed as cell-based, mouse (LLC), human (H1650. The following applies: 48 h, range over LLC. As for the experimental part: FIGS. 1A-lE depict that WFA induces ER stress-mediated apoptosis in NSCLC cell lines. (FIG. 1A) NSCLC cells were plated on 96-well plates and treated with different concentrations of WFA ([…]) in triplicates. Forty-eight hours post-treatment, cell viability was determined using Cell Titer-Glo assay. Luminescence values were normalized to control untreated cells and IC50 values are represented as the mean of two independent experiments ±SEM. (FIG. 1B) NSCLC cells were treated WFA for forty-eight hours, then collected to measure apoptotic cell death using Annexin V assay in LLC cells, H1650 cells, and A549 cells. Percentages of early (annexin*DAPI-) and late (annexin*DAPI+) apoptotic cells are represented as means of two separate experiments ±SEM and statistical significance was calculated using one-way ANOVA and a Fisher LSD post hoc test was used to compare the mean of each group to that of the control group. […] The quantification of western blot band density was performed using Image J software v.1.54d and normalized to housekeeping control protein in LLC cells (0-actin). […]
LLC, H1650, or A549 was plated in 96-well plates and treated with WFA (serialdilutions 10-0.078 μM) in triplicates. […] Forty-eight hours after treatment, cell viability was determined using Cell Titer-Glo assay (Promega, Madison, WI, USA) according to the manufacturer's instructions. […]
For orientation: ATP-based viability assays read luminescence as a measure of living cells.

For assay [2], the system named is PD-L1 expression in MC38, HCT116 colon cancer cell lines. Description: PD-L1 expression in colon cancer cell lines. In kind it is cell-based, mouse (MC38), human (HCT116). As for the experimental part: FIGS. 8A-8G depict that WFA induced ICD and PD-L1 upregulation in colorectal cancer cell lines. WFA increased the levels of ecto-CRT in the murine colorectal cancer cell line (FIG. 8A) MC-38 and human cell line (FIG. 8B) HCT-116. WFA increased the expression of PD-L1 in both (FIG. 8C) MC-38 and (FIG. 8D) HCT-116 cells. […] H1650 cells (at a higher density) were treated with a higher concentration of WFA (2 and 4 μM) to facilitate cell collection and protein isolation. The band density was quantified using Image J software and normalized to the housekeeping protein. The fold change from untreated control was averaged from two independent experiments ±SEM and one-way ANOVA was used to calculate the statistical significance. A Fisher LSD post hoc test was performed to compare the treatments to the control in (FIG. 8E) LLC, (FIG. 8F) H1650, (FIG. 8G) A549 cells. * p<0.05, ** p<0.01, *** p<0.001, **** p<0.0001.
In vitro WFA-treated or control cells were collected using Accutase cell detachment solution and stained with FACS-diluted (PBS, 10% FBS, 2 mMEDTA) pre-titrated fluorophore conjugated or primary unconjugated antibody solutions (Table 1) for 30 min on ice in the dark. […]

On to `CC1=C(CO)C(=O)O[C@@H]([C@@H](C)[C@H]2CC[C@H]3[C@@H]4C[C@H]5O[C@]56[C@@H](O)C=CC(=O)[C@]6(C)[C@H]4CC[C@]23C)C1` [WFA, Withaferin A], for which the IC50 in assay [1] lay within 500 to 1500 nM. For the same compound, in assay [2], the PD-L1 expression result was “increased”.

Usually IC50 stands for the point on the concentration scale where inhibition reaches its midpoint.

For the origin of these results see patent US20240293430A1, “WITHAFERIN A AND IMMUNE CHECKPOINT BLOCKER COMBINATION THERAPIES” (University of South Florida, priority 2023, published 2024).
